Experimental findings from ChEMBL document CHEMBL3751798, “Targeting cancer cells with oleanolic and ursolic acid derived hydroxamates” (Bioorg Med Chem Lett, 2016) are described below.

A short description of test [1]: Cytotoxicity against mouse NIH/3T3 cells after 96 hrs by SRB assay. The format is cell-based. Conditions: NIH3T3, 96 h. (Sulforhodamine B stains cellular protein and so reports cell mass.)
For another test, the system named is A549. Description: Cytotoxicity against human A549 cells after 96 hrs by SRB assay. Format: functional, cell-based. Conditions: A549, 96 h.
The next test deals with MCF7. Description: Cytotoxicity against human MCF7 cells after 96 hrs by SRB assay. The format is functional, cell-based. Conditions: MCF7, 96 h.
In a further test the test system is A2780. The experiment in a line: Cytotoxicity against human A2780 cells after 96 hrs by SRB assay. The format is functional, cell-based. Conditions: A2780, 96 h.
In a further test the test system is HT-29. Description: Cytotoxicity against human HT-29 cells after 96 hrs by SRB assay. Format: functional, cell-based. The following applies: HT-29, 96 h.
Test [2] is described as follows: Cytotoxicity against human 518A2 cells after 96 hrs by SRB assay. Format: functional, cell-based. Conditions: 518A2, 96 h.
In the next test the test system is FaDu. Description: Cytotoxicity against human FADU cells after 96 hrs by SRB assay. Format: functional, cell-based.

As a reminder, the EC50 is the concentration that produces a half-maximal response. A higher EC50 goes with lower potency in that assay. As for `CC1(C)CC[C@]2(C(=O)O)CC[C@]3(C)C(=CC[C@@H]4[C@@]5(C)CC[C@H](O)C(C)(C)[C@@H]5CC[C@]43C)[C@@H]2C1` [OLEANOLIC_ACID], the EC50 in test [1] was 76.4 µM; in the test with A549, 72.3 µM; in the test with MCF7, 80 µM; in the test on A2780, 14 µM; with HT-29, 38.8 µM; in test [2], 64.3 µM. The same compound came in with an EC50 in the test on FaDu of 75.4 µM.

Consider `CC(=O)O[C@H]1CC[C@]2(C)[C@H]3CC=C4[C@@H]5[C@@H](C)[C@H](C)CC[C@]5(C(=O)NO)CC[C@@]4(C)[C@]3(C)CC[C@H]2C1(C)C`, for which the EC50 in test [1] was 2.5 µM; in the test on A549, 3.9 µM; in the test with MCF7, 3.3 µM; in the test on A2780 it was 2.7 µM; in the test with HT-29, 3.5 µM; in test [2], 3.6 µM. In the test with FaDu, a half-maximal response (EC50) required 6.4 µM.

As to `CC(=O)O[C@H]1CC[C@]2(C)[C@H]3CC=C4[C@@H]5CC(C)(C)CC[C@]5(C(=O)NO)CC[C@@]4(C)[C@]3(C)CC[C@H]2C1(C)C`, the EC50 in test [1] is 2.6 µM; with A549 it was 3.1 µM; in the test on MCF7, 9.5 µM; in the test on A2780 it was 2.6 µM; in the test with HT-29, 4.9 µM; in test [2], 4.2 µM. For the same compound, a half-maximal response with FaDu (EC50) required 10.6 µM.

With `CON(C)C(=O)[C@]12CCC(C)(C)C[C@H]1C1=CC[C@@H]3[C@@]4(C)CCC(=O)C(C)(C)[C@@H]4CC[C@@]3(C)[C@]1(C)CC2`, the EC50 in test [1] was determined as 13.7 µM; in the test on A549 it was 5.6 µM; in the test with MCF7 it was 16.4 µM; with A2780 it was 8.8 µM; with HT-29, 15.6 µM; in test [2], 20.9 µM. In the test on FaDu, this compound displayed an EC50 of 24.3 µM.

With `CC1(C)CC[C@]2(C(=O)NO)CC[C@]3(C)C(=CC[C@@H]4[C@@]5(C)CC[C@H](O)C(C)(C)[C@@H]5CC[C@]43C)[C@@H]2C1`, the EC50 worked out at 4.3 µM in test [1]; 4.7 µM in the test on A549; 8.2 µM with MCF7; 3.4 µM with A2780; 4.7 µM with HT-29; 5.5 µM in test [2]. Further, the EC50 with FaDu is 8.2 µM.

For `CC(=O)O[C@H]1CC[C@]2(C)[C@H]3CC=C4[C@@H]5CC(C)(C)CC[C@]5(C(=O)N(C)O)CC[C@@]4(C)[C@]3(C)CC[C@H]2C1(C)C`, the EC50 in test [1] is 12.3 µM; in the test with A549, 10.8 µM; with MCF7, 6.2 µM; with A2780 it was 7.5 µM; in the test on HT-29, 10.6 µM; in test [2], 9.4 µM. The same compound came in with an EC50 in the test on FaDu of 12.1 µM.

Turning to `CON(C)C(=O)[C@]12CC[C@@H](C)[C@H](C)[C@H]1C1=CC[C@@H]3[C@@]4(C)CC[C@H](OC(C)=O)C(C)(C)[C@@H]4CC[C@@]3(C)[C@]1(C)CC2`, the EC50 came to 23 µM in test [1]; 9.6 µM in the test on A549; 15.4 µM in the test with MCF7; 9.8 µM with A2780; 17.6 µM in the test on HT-29; 12.7 µM in test [2]. Besides, it took 15 µM to reach a half-maximal effect in the test on FaDu (EC50).

As for `CON(C)C(=O)[C@]12CCC(C)(C)C[C@H]1C1=CC[C@@H]3[C@@]4(C)CC[C@H](O)C(C)(C)[C@@H]4CC[C@@]3(C)[C@]1(C)CC2`, the EC50 turned out to be 20.4 µM in test [1]; 11.8 µM in the test on A549; 16.2 µM in the test on MCF7; 3.4 µM in the test on A2780; 5.6 µM in the test with HT-29; 3.3 µM in test [2]. For the same compound, the EC50 in the test on FaDu worked out at 29.8 µM.

For `C[C@H]1[C@H](C)CC[C@]2(C(=O)NO)CC[C@]3(C)C(=CC[C@@H]4[C@@]5(C)CC[C@H](O)C(C)(C)[C@@H]5CC[C@]43C)[C@H]12`, the EC50 in test [1] worked out at 5.5 µM; in the test on A549, 6.7 µM; with MCF7 it was 13.1 µM; in the test with A2780, 4.6 µM; in the test with HT-29, 7.5 µM; in test [2], 9.4 µM. The compound further showed an EC50 in the test on FaDu of 18.1 µM.

On to `C[C@H]1[C@H](C)CC[C@]2(C(=O)N(C)O)CC[C@]3(C)C(=CC[C@@H]4[C@@]5(C)CCC(=O)C(C)(C)[C@@H]5CC[C@]43C)[C@H]12`, for which the EC50 in test [1] turned out to be 10.5 µM; with A549, 9.3 µM; in the test with MCF7, 17.6 µM; in the test with A2780 it was 4 µM; in the test with HT-29, 12.8 µM; in test [2] it was 12.4 µM. This compound yielded an EC50 in the test with FaDu of 17.6 µM.

`CN(O)C(=O)[C@]12CCC(C)(C)C[C@H]1C1=CC[C@@H]3[C@@]4(C)CCC(=O)C(C)(C)[C@@H]4CC[C@@]3(C)[C@]1(C)CC2`: the EC50 in test [1] was 9.2 µM; with A549, 8.1 µM; with MCF7, 16.4 µM; in the test on A2780, 4.8 µM; with HT-29 it was 11.9 µM; in test [2], 12.9 µM. In the test with FaDu, the half-maximal effective concentration (EC50) worked out at 14.1 µM.

Regarding `CONC(=O)[C@]12CC[C@@H](C)[C@H](C)[C@H]1C1=CC[C@@H]3[C@@]4(C)CC[C@H](O)C(C)(C)[C@@H]4CC[C@@]3(C)[C@]1(C)CC2`, the EC50 in test [1] came out at 16.2 µM; in the test with A549 it was 8.3 µM; with MCF7, 10 µM; in the test with A2780 it was 12.1 µM; in the test with HT-29, 15.4 µM; in test [2], 14.3 µM. Also, in the test on FaDu, the response was half-maximal at 11.2 µM (EC50).

In the case of `CON(C)C(=O)[C@]12CC[C@@H](C)[C@H](C)[C@H]1C1=CC[C@@H]3[C@@]4(C)CC[C@H](O)C(C)(C)[C@@H]4CC[C@@]3(C)[C@]1(C)CC2`, the EC50 in test [1] was 23.3 µM; with A549, 11.6 µM; in the test on MCF7, 18.7 µM; in the test on A2780 it was 21.8 µM; in the test on HT-29 it was 18.4 µM; in test [2] it was 22.9 µM. Also, a half-maximal effect with FaDu (EC50) was put at 26.8 µM.

For `CONC(=O)[C@]12CCC(C)(C)C[C@H]1C1=CC[C@@H]3[C@@]4(C)CC[C@H](OC(C)=O)C(C)(C)[C@@H]4CC[C@@]3(C)[C@]1(C)CC2`, the EC50 in test [1] was 13.2 µM; with A549, 18.6 µM; in the test on MCF7, 9.1 µM; with A2780, 10.8 µM; in the test on HT-29, 17.5 µM; in test [2] it was 14.2 µM. The same compound had a concentration for a half-maximal effect (EC50) in the test on FaDu of 12.3 µM.

Turning to `CONC(=O)[C@]12CC[C@@H](C)[C@H](C)[C@H]1C1=CC[C@@H]3[C@@]4(C)CC[C@H](OC(C)=O)C(C)(C)[C@@H]4CC[C@@]3(C)[C@]1(C)CC2`, the EC50 came to 14.8 µM in test [1]; 6.6 µM with A549; 6.8 µM with MCF7; 10.6 µM in the test on A2780; 13.2 µM in the test on HT-29; 15.5 µM in test [2]. The EC50 with FaDu is 12.1 µM.
